In publication PMC4770715, “LIM kinase inhibitors disrupt mitotic microtubule organization and impair tumor cell proliferation” (Oncotarget, 2015) one finds remaining binding data, which are given here for two molecules.

Holding throughout (assay): biochemical
Common to all, as to set-up: KINOMEscan active-site competition binding, percent of control (100 = no competition)
Holding throughout (details): competition binding, percent control

The target of assay [1] is CLK3 (Homo sapiens, UniProt P49761). From the text: (§1) Given the potential for the use of LIMK inhibitors as cancer chemotherapeutics, a high-throughput drug discovery and medicinal chemistry program was undertaken. Details of the screening methodology and description of initial hit matter were described in [38]. […] Details of their chemical synthesis are described in Charles et al.. […] These and additional physiochemical parameters are in Supplemental Table 5. […] Kinases inhibited >25% to 50% have yellow circles, 51% to 75% have orange circles, and >76% have red circles. In each case, the size of the circle is proportional to percentage inhibition. LIMK1 and LIMK2 positions are indicated in blue. Illustration reproduced courtesy of Cell Signaling Technology, Inc. (www.cellsignal.com). B. CRT0105950 structure and kinome selectivity mapping as described above. C.

Assay [2] concerns the target CAMKK1 (Homo sapiens, UniProt Q8N5S9).
Excerpt: as §1

Assay [3] deals with STK16 (Homo sapiens, UniProt O75716).
Excerpt: as §1

Assay [4] has as its target T1, CDC2L5 (Homo sapiens, UniProt Q14004).
T1 construct: gene CDK13
Excerpt: as §1

Assay [5] addresses FGFR3(G697C) (Homo sapiens, UniProt P22607, G697C).
Excerpt: as §1

Assay [6] addresses T2, ERK8 (Homo sapiens, UniProt Q8TD08).
T2 construct: gene MAPK15
Excerpt: as §1

Assay [7] addresses PIM1 (Homo sapiens, UniProt P11309).
Excerpt: as §1

For assay [8], the target named is PRKCE (Homo sapiens, UniProt Q02156).
Excerpt: as §1

Assay [9] concerns the target NEK5 (Homo sapiens, UniProt Q6P3R8).
Excerpt: as §1

The target of assay [10] is T3, NDR1 (Homo sapiens, UniProt Q15208).
T3 construct: gene STK38
Excerpt: as §1

Assay [11] addresses ACVR1 (Homo sapiens, UniProt Q04771).
Excerpt: as §1

Assay [12] concerns the target PRKG1 (Homo sapiens, UniProt Q13976).
Excerpt: as §1

Assay [13] concerns the target T4, PIK4CB (Homo sapiens, UniProt Q9UBF8).
T4 construct: gene PI4KB
Excerpt: as §1

In assay [14] the target is T5, PKAC-beta (Homo sapiens, UniProt P22694).
T5 construct: gene PRKACB
Excerpt: as §1

The target of assay [15] is EPHA7 (Homo sapiens, UniProt Q15375).
Excerpt: as §1

Assay [16] has as its target IRAK3 (Homo sapiens, UniProt Q9Y616).
Excerpt: as §1

The target of assay [17] is T6, CDC2L2 (Homo sapiens, UniProt Q9UQ88).
T6 construct: gene CDK11A
Excerpt: as §1

The target of assay [18] is T7, PFTAIRE2 (Homo sapiens, UniProt Q96Q40).
T7 construct: gene CDK15
Excerpt: as §1

Assay [19] addresses T8, MEK3 (Homo sapiens, UniProt P46734).
T8 construct: gene MAP2K3
Excerpt: as §1

Assay [20] deals with TTK (Homo sapiens, UniProt P33981).
Sequence of TTK (P33981 whole entry): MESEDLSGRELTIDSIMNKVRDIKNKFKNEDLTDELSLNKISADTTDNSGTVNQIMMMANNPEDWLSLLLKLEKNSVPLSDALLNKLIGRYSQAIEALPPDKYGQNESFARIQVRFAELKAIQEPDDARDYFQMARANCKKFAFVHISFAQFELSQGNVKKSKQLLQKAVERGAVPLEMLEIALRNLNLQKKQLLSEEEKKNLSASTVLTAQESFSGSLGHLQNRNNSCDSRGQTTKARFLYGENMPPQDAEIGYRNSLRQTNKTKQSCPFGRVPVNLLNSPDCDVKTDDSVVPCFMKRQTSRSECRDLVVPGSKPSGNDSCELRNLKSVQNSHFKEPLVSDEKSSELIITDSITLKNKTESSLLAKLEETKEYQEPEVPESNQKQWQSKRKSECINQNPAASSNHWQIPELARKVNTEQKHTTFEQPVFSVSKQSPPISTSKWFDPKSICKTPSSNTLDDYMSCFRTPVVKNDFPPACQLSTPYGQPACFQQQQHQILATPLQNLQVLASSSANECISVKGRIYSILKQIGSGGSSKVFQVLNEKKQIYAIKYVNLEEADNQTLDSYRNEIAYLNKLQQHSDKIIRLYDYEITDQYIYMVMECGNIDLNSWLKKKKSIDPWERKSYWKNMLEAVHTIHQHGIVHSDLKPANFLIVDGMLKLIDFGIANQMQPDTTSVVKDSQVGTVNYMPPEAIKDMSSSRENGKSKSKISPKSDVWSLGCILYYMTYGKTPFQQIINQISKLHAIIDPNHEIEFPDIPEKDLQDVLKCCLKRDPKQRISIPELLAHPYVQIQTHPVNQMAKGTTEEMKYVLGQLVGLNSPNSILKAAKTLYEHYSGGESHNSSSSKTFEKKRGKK
Excerpt: as §1

Assay [21] deals with DMPK (Homo sapiens, UniProt Q09013).
Sequence of DMPK (Q09013 whole entry): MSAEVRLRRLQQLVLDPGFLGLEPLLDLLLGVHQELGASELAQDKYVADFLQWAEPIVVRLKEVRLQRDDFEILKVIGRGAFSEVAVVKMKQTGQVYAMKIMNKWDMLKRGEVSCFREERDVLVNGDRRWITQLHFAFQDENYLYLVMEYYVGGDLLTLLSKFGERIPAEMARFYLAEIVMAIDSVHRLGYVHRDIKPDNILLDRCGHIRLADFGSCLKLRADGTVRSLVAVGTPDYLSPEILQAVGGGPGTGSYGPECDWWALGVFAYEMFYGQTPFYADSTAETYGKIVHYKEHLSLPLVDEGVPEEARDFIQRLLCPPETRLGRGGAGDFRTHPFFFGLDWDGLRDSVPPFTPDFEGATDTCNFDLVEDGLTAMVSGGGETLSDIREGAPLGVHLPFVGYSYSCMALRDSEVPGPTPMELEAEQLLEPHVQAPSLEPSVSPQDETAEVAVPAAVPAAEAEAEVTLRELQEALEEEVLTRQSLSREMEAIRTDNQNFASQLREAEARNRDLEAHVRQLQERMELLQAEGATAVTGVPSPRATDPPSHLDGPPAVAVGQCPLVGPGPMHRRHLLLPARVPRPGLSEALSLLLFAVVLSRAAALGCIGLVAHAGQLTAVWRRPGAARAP
Excerpt: as §1

Assay [22] addresses T9, YSK4 (Homo sapiens, UniProt Q56UN5).
T9 construct: gene MAP3K19
Excerpt: as §1

Assay [23] has as its target MAK (Homo sapiens, UniProt P20794).
Excerpt: as §1

T1 sequence (Q14004 whole entry): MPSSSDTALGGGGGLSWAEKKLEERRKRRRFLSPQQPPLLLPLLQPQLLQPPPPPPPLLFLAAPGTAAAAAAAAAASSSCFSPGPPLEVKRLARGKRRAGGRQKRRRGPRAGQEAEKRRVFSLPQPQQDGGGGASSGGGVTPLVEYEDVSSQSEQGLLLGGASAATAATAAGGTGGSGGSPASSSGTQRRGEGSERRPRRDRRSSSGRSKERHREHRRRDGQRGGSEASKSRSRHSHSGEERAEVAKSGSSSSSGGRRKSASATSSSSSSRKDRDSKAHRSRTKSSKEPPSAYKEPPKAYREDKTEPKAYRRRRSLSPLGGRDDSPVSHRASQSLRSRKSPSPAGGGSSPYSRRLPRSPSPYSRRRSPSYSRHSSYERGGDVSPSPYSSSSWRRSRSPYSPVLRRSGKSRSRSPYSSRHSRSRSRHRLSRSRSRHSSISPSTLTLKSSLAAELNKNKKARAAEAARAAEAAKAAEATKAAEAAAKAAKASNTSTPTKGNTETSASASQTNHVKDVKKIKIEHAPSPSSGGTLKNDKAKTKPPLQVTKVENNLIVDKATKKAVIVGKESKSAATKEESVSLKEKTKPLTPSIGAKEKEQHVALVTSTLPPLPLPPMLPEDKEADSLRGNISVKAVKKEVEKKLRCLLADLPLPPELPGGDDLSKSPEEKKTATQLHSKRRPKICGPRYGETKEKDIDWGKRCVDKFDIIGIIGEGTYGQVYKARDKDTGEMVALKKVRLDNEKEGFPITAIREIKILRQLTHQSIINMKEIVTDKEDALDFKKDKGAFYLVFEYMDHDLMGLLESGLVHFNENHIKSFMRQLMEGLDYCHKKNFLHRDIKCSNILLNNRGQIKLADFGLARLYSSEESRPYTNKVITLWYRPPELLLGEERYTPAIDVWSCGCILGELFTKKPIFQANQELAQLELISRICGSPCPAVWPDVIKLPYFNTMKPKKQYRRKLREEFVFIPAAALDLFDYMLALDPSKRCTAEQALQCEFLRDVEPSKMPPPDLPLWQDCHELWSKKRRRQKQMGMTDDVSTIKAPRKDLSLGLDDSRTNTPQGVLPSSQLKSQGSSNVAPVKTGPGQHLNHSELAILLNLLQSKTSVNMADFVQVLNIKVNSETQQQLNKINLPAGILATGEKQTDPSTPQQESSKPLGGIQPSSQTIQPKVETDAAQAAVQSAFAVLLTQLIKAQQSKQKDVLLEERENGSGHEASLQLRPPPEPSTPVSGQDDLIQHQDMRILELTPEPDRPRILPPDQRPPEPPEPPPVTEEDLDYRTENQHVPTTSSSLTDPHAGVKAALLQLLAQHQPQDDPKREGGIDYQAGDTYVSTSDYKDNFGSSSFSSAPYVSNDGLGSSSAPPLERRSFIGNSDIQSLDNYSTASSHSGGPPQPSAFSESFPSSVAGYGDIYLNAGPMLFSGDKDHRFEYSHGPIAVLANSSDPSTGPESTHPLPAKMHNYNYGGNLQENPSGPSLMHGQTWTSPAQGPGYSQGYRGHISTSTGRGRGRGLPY
Sequence of PIM1 (P11309 whole entry): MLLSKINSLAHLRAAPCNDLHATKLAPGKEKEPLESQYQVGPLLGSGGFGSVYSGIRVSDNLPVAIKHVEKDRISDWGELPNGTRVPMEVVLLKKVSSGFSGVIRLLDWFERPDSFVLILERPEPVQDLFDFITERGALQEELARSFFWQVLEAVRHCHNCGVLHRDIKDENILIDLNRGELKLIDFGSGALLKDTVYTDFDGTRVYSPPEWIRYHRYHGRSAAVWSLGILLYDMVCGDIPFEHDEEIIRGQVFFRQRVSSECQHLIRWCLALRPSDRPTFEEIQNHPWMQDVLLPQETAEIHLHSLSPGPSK
Sequence of NEK5 (Q6P3R8 whole entry): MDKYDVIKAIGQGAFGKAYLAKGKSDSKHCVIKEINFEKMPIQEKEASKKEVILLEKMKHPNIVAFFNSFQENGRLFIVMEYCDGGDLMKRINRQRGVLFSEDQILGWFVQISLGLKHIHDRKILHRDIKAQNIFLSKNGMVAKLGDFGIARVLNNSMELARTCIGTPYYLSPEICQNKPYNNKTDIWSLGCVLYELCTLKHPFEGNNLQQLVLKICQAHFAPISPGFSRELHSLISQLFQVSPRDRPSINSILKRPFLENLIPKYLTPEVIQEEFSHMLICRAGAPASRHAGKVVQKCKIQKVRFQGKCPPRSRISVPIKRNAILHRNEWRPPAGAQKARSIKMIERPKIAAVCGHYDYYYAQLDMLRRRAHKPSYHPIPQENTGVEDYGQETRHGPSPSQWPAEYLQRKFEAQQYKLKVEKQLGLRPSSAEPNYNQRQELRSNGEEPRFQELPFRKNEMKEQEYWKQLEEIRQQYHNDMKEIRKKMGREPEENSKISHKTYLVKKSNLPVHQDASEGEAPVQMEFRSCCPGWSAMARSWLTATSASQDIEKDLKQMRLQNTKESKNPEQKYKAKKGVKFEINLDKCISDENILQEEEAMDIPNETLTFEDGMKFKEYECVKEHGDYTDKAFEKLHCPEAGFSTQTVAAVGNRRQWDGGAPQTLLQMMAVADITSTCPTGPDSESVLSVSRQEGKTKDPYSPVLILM
T8 sequence (P46734 whole entry): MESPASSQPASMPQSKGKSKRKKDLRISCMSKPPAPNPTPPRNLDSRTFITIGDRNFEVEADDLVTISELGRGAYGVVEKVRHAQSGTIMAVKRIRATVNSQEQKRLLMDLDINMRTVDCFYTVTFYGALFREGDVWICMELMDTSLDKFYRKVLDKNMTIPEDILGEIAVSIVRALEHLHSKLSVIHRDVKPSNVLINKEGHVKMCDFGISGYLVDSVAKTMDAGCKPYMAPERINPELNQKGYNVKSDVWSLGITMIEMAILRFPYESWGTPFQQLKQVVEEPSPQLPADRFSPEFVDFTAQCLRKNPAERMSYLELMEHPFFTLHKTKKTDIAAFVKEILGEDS
Sequence of PRKG1 (Q13976 whole entry): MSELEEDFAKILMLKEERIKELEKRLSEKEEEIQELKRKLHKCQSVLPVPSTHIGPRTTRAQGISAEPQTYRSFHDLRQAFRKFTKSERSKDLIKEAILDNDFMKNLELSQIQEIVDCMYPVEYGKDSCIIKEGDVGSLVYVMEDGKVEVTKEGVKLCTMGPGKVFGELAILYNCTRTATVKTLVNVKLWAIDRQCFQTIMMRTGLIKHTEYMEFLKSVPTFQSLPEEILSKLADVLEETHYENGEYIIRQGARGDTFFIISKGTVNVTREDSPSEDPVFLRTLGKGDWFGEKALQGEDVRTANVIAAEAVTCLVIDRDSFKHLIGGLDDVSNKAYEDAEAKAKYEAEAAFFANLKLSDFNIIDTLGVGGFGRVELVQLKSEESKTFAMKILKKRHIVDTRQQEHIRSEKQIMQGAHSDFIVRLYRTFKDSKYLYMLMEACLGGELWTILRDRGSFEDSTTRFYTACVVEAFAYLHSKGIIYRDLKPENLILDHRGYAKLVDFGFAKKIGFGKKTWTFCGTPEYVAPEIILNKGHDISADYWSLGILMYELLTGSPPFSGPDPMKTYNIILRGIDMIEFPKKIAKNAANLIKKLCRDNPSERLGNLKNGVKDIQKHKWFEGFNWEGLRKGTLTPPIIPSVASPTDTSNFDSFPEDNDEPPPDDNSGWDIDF

Consider `COc1ccc(-c2cnccc2-c2cnc(NC(=O)C(C)C)s2)c(C(F)(F)F)c1` [CRT0105446, N-{5-[3-(4-Methoxy-2-trifluoromethyl-phenyl)-pyridin-4-yl]-hiazol-2-yl}-isobutyramide], for which the remaining binding at 10 µM in [1] amounted to 49%; in [2], 82%; in assay [3] it was 5%; in assay [4] it was 14%; in assay [5], 93%; in [6], 1.4%. In addition, the remaining binding at 10 µM in assay [7] was found to be 96%; in [8] it was 72%; in [9], 99%; in assay [10], 100%; in assay [11] it was 100%; in assay [12] it was 100%. Also, the remaining binding at 10 µM in assay [13] is 80%; in assay [14] it was 100%; in [15], 94%; in [16], 89%; in assay [17] it was 59%; in assay [18], 18%. The remaining binding at 10 µM stood at 83% in assay [19]; 32% in assay [20]; 100% in [21]; 90% in [22]; 0.6% in assay [23].
Consider `Cc1ccc(-c2cnccc2-c2cnc(Nc3ccc(O)cc3)s2)c(Cl)c1` [CRT0105950, 4-{5-[3-(2-Chloro-4-methyl-phenyl)-pyridin-4-yl]-thiazol-2-ylamino}-phenol], for which the remaining binding at 10 µM in assay [1] was found to be 22%; in [2] it was 26%; in [3], 8.7%; in [4], 26%; in [5] it was 7.2%; in [6], 1.6%. The remaining binding at 10 µM in [7] was 76%; in [8], 55%; in assay [9] it was 65%; in assay [10] it was 86%; in assay [11], 52%; in assay [12] it was 72%. The remaining binding at 10 µM stood at 2.9% in assay [13]; 44% in [14]; 83% in assay [15]; 8.1% in assay [16]; 89% in assay [17]; 18% in [18]. The remaining binding at 10 µM in assay [19] worked out at 27%; in assay [20], 1.7%; in assay [21], 100%; in [22], 53%; in assay [23], 2%.
